Earlier results in patent publication US20150108064A1, “Production Of Channel Type Cyclodextrin Crystals” (Amphidex A/S, priority 2012, published 2015).

Tests used:
[1] = maximum safe concentration in the air, worker exposed daily

Structure (SMILES)	Solubility in H2O	TLV [1]
C1CCCCC1 [Cyclohexane]	0.005 g/100 g	300 ppm
CCCCCCC [Heptane]	–	400 ppm
CCCCCC [Hexane]	0.001 g/100 g	50 ppm
CCCO [1-propanol]	–	200 ppm
C1CCOC1 [THF, Tetrahydrofuran]	–	200 ppm
ClC(Cl)Cl [Chloroform]	–	10 ppm
CC(C)=O [Acetone]	–	500 ppm
CCOC(C)=O [Ethyl acetate]	8.700 g/100 g	400 ppm
CCO [Ethanol]	–	1000 ppm
CCCCC [Pentane]	0.004 g/100 g	–
